According to patent EP4763837A1, “PHOTOCHROMIC COMPOUND, CURABLE COMPOSITION, OPTICAL ARTICLE, LENS, AND EYEGLASSES” (TOKUYAMA CORPORATION, priority 2023, dated 2025):
Values joined by “and” are separate entries in the source; they are usually repeats but may differ in a detail not shown here. Equal entries are not always repeated.

How the values were obtained:
[1] = Solubility of photochromic compound in polymerizable compounds; format: physicochemical; design: key: 1: No haze is seen when checked under transmission of light, and the sample is completely dissolved.; 2: A very thin haze is seen to the extent that it can be seen under transmission of light.; 3: A thin haze that can be seen under transmission of light is seen.; 4: A haze can be seen even without transmission of light; conditions: 35 µmol/g in radical polymerizable compound composition of Example 21, 65 to 70°C; for Dissolution for 15 min / Dissolution for 30 min / Dissolution for 45 min: stirring and ultrasonic irradiation; for Dissolution for 1 hour: head reads 60 min in Tables 8 to 14
Outline: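 Photochromic compound was added to the radical polymerizable portion of a curable composition and dissolved at 65 to 70°C under stirring and intermittent ultrasonication. The sample was inspected visually by transmitted light every 15 minutes up to 1 h and scored 1 (fully dissolved, no haze) to 4 (haze visible without transmitted light). Solubility was ranked by the time taken to reach score 1.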

[2] = Photochromic property of photochromic laminate made by coating method; format: physicochemical; conditions: for Residual ratio / Color developing density at 23°C: laminate by coating method; for Residual ratio: A96/A0 x 100 after 96 hours accelerated degradation, xenon weather meter X25; for Color developing density at 23°C: absorbance difference after 240 seconds irradiation at the maximum absorption wavelength of the same line
Outline: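 Compound at 0.25 mmol per 100 g methacrylate monomer mix, spin-coated 40 µm on a primed thiourethane lens, photocured 90 s under N2, then 110°C for 1 h. λmax and A23 measured after 240 s irradiation at 23°C; τ1/2 is time to half-fade after irradiation stops. Residual ratio A96/A0 after 96 h xenon weathering.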

Row | SMILES | Dissolution for 15 min [1] | Dissolution for 30 min [1] | Dissolution for 45 min [1] | Dissolution for 1 hour [1] | Color fading half-life at 23°C [2] | Residual ratio [2] | Color developing density at 23°C [2]
1 | CCCCC1(CCC)c2ccccc2-c2c1c1c(c3cc(OC)c(N4CCOCC4)cc23)OC(c2ccc(OC)cc2)(c2ccc(OC)cc2)C=C1 (stereo not drawn) [Formula (6-2)] | 4 | 2 | 1 | 1 | 2 min | 55% and 58% | 
2 | CCC1(C)c2ccccc2-c2c1c1c(c3cc(OC)c(N(C)c4ccccc4)cc23)OC(c2ccc(OC)cc2)(c2ccc(OC)cc2)C=C1 (stereo not drawn) [Formula (9-1)] | 4 | 2 | 2 | 1 | 1.32 min | 71% | 1.16 -
3 | CCCC1(CC)c2ccccc2-c2c1c1c(c3cc(OC)c(N4CCOCC4)cc23)OC(c2ccc(OC)cc2)(c2ccc(OC)cc2)C=C1 (stereo not drawn) [Formula (14-1)] | 4 | 2 | 1 | 1 | 1.83 min | 55% and 57% | 
4 | CCCCCCC1(CC)c2ccccc2-c2c1c1c(c3cc(OC)c(N4CCOCC4)cc23)OC(c2ccc(OC)cc2)(c2ccc(OC)cc2)C=C1 (stereo not drawn) [Formula (18-1)] | 3 | 2 | 1 | 1 |  | 53% and 55% | 
5 | CCCCCCCCCCCC1(C)c2ccccc2-c2c1c1c(c3cc(OC)c(N4CCOCC4)cc23)OC(c2ccc(OC)cc2)(c2ccc(OC)cc2)C=C1 (stereo not drawn) [Formula (19-1)] | 2 | 1 | 1 | 1 |  | 47% and 51% | 
6 | COc1ccc(C2(c3ccc(OC)cc3)C=Cc3c4c(c5cc(N6CCOCC6)c(OC)cc5c3O2)-c2ccccc2C4(C)C)cc1 [Formula (A), reference compound] | 4 | 3 | 3 | 3 |  | 47% and 50% | 1.65 - and 0.83 -
7 | CCC1(OC)c2ccccc2-c2c1c1c(c3cc(OC)c(N4CCOCC4)cc23)OC(c2ccc(OC)cc2)(c2ccc(OC)cc2)C=C1 (stereo not drawn) [Formula (B), reference compound] | 4 | 3 | 1 | 1 | 0.967 min | 37% and 41% | 1.29 - and 0.70 -
